Test results from PubChem BioAssay (NCI).
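Growth conditions: 96-well plates. Treatment: test compound, 48 hours, 5 concentrations. Analysis: linear interpolation between bracketing concentrations; unreached endpoints set to highest concentration. GI50: concentration for 50% inhibition of growth. The concentration for full growth arrest is given as TGI.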

Key:
Assay in all cases: DTP human tumour cell line panel, 48 h
A549 NSCLC = system: A549 NSCLC
MOLT-4 leukemia = system: MOLT-4 leukemia
MDA-MB-435 = system: MDA-MB-435
HS 578T breast = system: HS 578T breast
LOX IMVI melanoma = system: LOX IMVI melanoma
ACHN renal = system: ACHN renal
UACC-62 melanoma = system: UACC-62 melanoma
HT29 colon = system: HT29 colon

SMILES	GI50 (A549 NSCLC) [µM]	TGI (A549 NSCLC) [µM]	GI50 (MOLT-4 leukemia) [µM]	TGI (MOLT-4 leukemia) [µM]	GI50 (MDA-MB-435) [µM]	TGI (MDA-MB-435) [µM]	GI50 (HS 578T breast) [µM]	TGI (HS 578T breast) [µM]	GI50 (LOX IMVI melanoma) [µM]	TGI (LOX IMVI melanoma) [µM]	GI50 (ACHN renal) [µM]	TGI (ACHN renal) [µM]	GI50 (UACC-62 melanoma) [µM]	TGI (UACC-62 melanoma) [µM]	GI50 (HT29 colon) [µM]	TGI (HT29 colon) [µM]
COc1ccc(C(=O)c2no[n+]([O-])c2C(=O)c2ccc(OC)cc2)cc1	17.2	34.4	1.93	4.25	6.72	22.9	17.8	51.4	1.14	2.53	1.9	3.4	10.3	23.9	2.32	
Nc1ncnc2c1ncn2C1OC(F)(COS(N)(=O)=O)C(O)C1O (stereo not given)	> 100	> 100	> 100	> 100	> 100	> 100	> 100	> 100	> 100	> 100	> 100	> 100	> 100	> 100	> 100	> 100
NC(=O)c1c(NC(=O)c2ccc(C(F)(F)F)cc2Cl)sc2c1CCC(=O)C2	2.69	14.4	0.361	> 100	0.393	1.79	0.368	5.94	0.383	1.83	0.322	1.04	0.274	1.21	0.346	1.67
COc1cccc(/C=C2\COc3ccc(O)c(O)c3C2=O)c1OC	2.58	14.2	1.83	> 100	2.3	7	3.99	31.5	1.53	3.08	3.27	12.2	1.8	4.53	3.33	10.1
O=c1oc2cc(O)ccc2cc1-c1nc2ccccc2o1		> 100		> 100		> 100		> 100		> 100		> 100		> 100		> 100
CN(C)Cc1c[nH]c2nc[nH]c(=O)c12		> 100		24.7		> 100		> 100		40.9		> 100		39.7		> 100
O=NN(CC(=O)NNc1ccccc1)CC(=O)NNc1ccccc1	> 23.1	> 100	4.04	> 100	> 20.1	> 100	> 100	> 100	1.22	> 100		> 100	0.479	7.9	> 100	> 100
C=CC(=O)N1CCN(c2nc(OC[C@@H]3CCCN3C)nc3c(F)c(-c4nc(N)cc(C)c4C(F)(F)F)c(Cl)cc23)[C@@H](C)C1	3.36	13.6	1.91	7.63	2.09	4.65	1.83	4.53	1.6	3.02	3.41	12.6			2.61	9.8
N#C/C(=C\c1ccccn1)c1nc2ccccc2o1	36.5	> 100	24.6	82.6	34.6	> 100	35.1	> 100	17	38.1	19.2	46.6	21.3	46.2	30.6	95.2
C(#Cc1ccccc1C#Cc1cnccn1)c1cnccn1	34.5	> 86.3			18.5	51.8	34.9	> 100	17.3	53.4	19.2	> 68.9	17.5	51.4	41.8	> 100
CCc1n(Cc2ccc3ccccc3c2)cc[n+]1Cc1ccc2ccccc2c1	2.59	13.9	0.829	2.99	0.424	1.57	1.5	5.62	0.649	1.96	2.87	10	0.507	2	0.563	2.23
Nc1ncnc2occ(-c3ccc(NC(=O)Nc4cccc(C(F)(F)F)c4)cc3)c12	4.73	14.9	3.54	15.5	2.22	6.48	0.973	6.74	2.57	12.1	1.4	12.1	3.02	6.54	3.12	10.6
Cc1nc2ccccc2c(/C=C/c2ccc(F)cc2)c1C(=O)/C=C/c1ccccc1	2.88	10.3	1.74	6.57	2.94	12.2	5.15	> 100	1.69	3.11	1.98	4.65	1.86	4.04	2.81	> 100
CC(=O)OC1CCC2(C)C(=CCC3C2CCC2(C)C3CC3OC4(CCC(C)CN4)C(C)C32)C1 (stereo not given)		> 100		> 100		> 100		> 100		> 100		> 100		> 100		> 100
CC(C)OC(=O)NNc1c(Cl)cc(Cl)cc1Cl		> 100		> 100		> 100		> 100		> 100		> 100		> 100		> 100
CN(C)Cc1nsc(N(C)C)n1		> 100				> 100		> 100		> 100		> 100		> 100		> 100
CC(=O)OC1C(C)OC(Oc2c(-c3ccc(O)cc3)oc3cc(O)cc(O)c3c2=O)C(O)C1OC(C)=O (stereo not given)	49.8	> 100	26.7	> 75	27.2	> 75.4	24.9	82.4	21	50.2	52.3	> 100	21.4	> 60.5	31.4	> 91.3
